In US20070059364A1, “Active substance combination comprising a compound with npy receptor affinity and a compound with 5-ht6 receptor affinity” (Laboratorios Del Dr. Esteve S.A., priority 2003, published 2007):

Molecular target: T1, recombinant human 5HT6 receptor (Homo sapiens, UniProt P50406)
T1 construct: purchased Receptor Biology; host or cells: HEK-293 cell membranes
Experiment: Binding to the 5HT6 serotonin receptor, [3H]-LSD, HEK-293 cell membranes
Conditions: 10^−6 M; compounds of general formula (Id), Table 1d
Protocol: Binding to the 5HT6 Serotonin Receptor
The respective part of the literature descriptions is incorporated here by reference and form part of the disclosure. […] The assays are carried out in triplicate.

T1 sequence (P50406 whole entry): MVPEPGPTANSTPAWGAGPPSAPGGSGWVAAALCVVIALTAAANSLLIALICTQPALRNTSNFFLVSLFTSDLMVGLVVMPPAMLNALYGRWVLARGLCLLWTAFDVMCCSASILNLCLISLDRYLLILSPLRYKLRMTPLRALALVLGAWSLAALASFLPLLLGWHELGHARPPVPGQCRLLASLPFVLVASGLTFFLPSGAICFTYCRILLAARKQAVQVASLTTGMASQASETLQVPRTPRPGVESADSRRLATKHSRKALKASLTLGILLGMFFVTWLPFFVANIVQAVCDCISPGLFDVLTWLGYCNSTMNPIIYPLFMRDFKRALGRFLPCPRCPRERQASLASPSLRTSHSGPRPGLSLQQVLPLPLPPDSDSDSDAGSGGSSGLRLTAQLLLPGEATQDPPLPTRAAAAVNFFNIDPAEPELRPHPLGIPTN

| SMILES | inhibition at 1 µM |
| --- | --- |
| CN(C)CCn1ccc2c(NS(=O)(=O)CCc3cccc4ccccc34)cccc21 [Example 5d, N-[1-(2-dimethylaminoethyl)-1H-indole-4-yl]-2-(naphthalene-1-yl)-ethanesulfonamide] | 98.1% |

Same assay, conditions: compounds of general formula (If), Table 1f

| SMILES | Ki |
| --- | --- |
| CN(C)CCn1ccc2ccc(NS(=O)(=O)c3ccc(-c4ccccc4)cc3)cc21 [Example 5f, N-[1-(2-Dimethylaminoethyl)-1H-indol-6-yl]-4-phenylbenzenesulfonamide] | 0.129 µM |

Tested on: not given
Experiment: not given
Conditions: not given

| SMILES | melting point |
| --- | --- |
| Cl.O=C(CN1CCC(N2C(=O)OCc3ccccc32)CC1)Nc1ccc2c(c1)-c1ccccc1C2=O [Example 3a, 2-[4-(2-oxo-4H-benzo[d][1,3]oxazin-1-yl)-piperidin-1-yl]-N-(9-oxo-9H-fluoren-3-yl)-acetamide hydrochloride] | > 275 °C |
| CN(C)CCn1ccc2c(NS(=O)(=O)CCc3cccc4ccccc34)cccc21 [Example 5d, N-[1-(2-dimethylaminoethyl)-1H-indole-4-yl]-2-(naphthalene-1-yl)-ethanesulfonamide] | 47 to 54 °C |
| Cc1ccc2c(c1)COC(=O)N2C1CCN(CC(=O)Nc2ccc3c(c2)-c2ccccc2C3=O)CC1.Cl [Example 20a, 2-[4-(6-methyl-2-oxo-4H-benzo[d][1,3]oxazin-1-yl)-piperidin-1-yl]-N-(9-oxo-9H-fluoren-3-yl)-acetamide hydrochloride] | 250 to 252 °C |
| Cc1c(S(=O)(=O)Nc2ccc3c(c2)cc(C)n3CCN(C)C)sc2ccc(Cl)cc12 [Example 32e, 5-chloro-N-(1-(2-(dimethylamino)ethyl)-2-methyl-1H-indol-5-yl)-3-methylbenzo[b]thiophene-2-sulfonamide] | 203 to 205 °C |
| Cc1cc2cc(NS(=O)(=O)c3cccc4ccccc34)ccc2n1CCN(C)C [Example 34e, N-(1-(2-(dimethylamino)ethyl)-2-methyl-1H-indol-5-yl)-naphthalene-1-sulfonamide] | 183 to 184 °C |
| Cc1cc2cc(NS(=O)(=O)c3c(Cl)nc4sccn34)ccc2n1CCN(C)C [Example 35e, 6-chloro-N-(1-(2-(dimethylamino)ethyl)-2-methyl-1H-indol-5-yl)imidazo[2,1-b]thiazole-5-sulfonamide] | 182 to 183 °C |
| Cc1cc2cc(NS(=O)(=O)c3ccc(-c4ccccc4)cc3)ccc2n1CCN(C)C [Example 36e, N-(1-(2-(dimethylamino)ethyl)-2-methyl-1H-indol-5-yl)-4-phenylbenzenesulfonamide] | 176 to 177 °C |
| Cc1c(S(=O)(=O)Nc2ccc3[nH]cc(C4CCN5CCCC5C4)c3c2)sc2ccc(Cl)cc12 (centres unmarked) [Example 38c, N-[3-(octahydroindolizin-7-yl)-1H-indol-5-yl]-5-chloro-3-methylbenzo[b]thiophene-2-sulphonamide] | 142 to 144 °C |
| Cc1cc2cc(NS(=O)(=O)c3ccc(Oc4ccccc4)cc3)ccc2n1CCN(C)C [Example 38e, N-(1-(2-(dimethylamino)ethyl)-2-methyl-1H-indol-5-yl)-4-phenoxy-benzenesulfonamide] | 147 to 149 °C |
| Cc1cc2cc(NS(=O)(=O)c3cc(Cl)cc(Cl)c3)ccc2n1CCN(C)C [Example 39e, 3,5-dichloro-N-(1-(2-(dimethylamino)ethyl)-2-methyl-1H-indol-5-yl)-benzenesulfonamide] | 147 to 149 °C |
| Cc1cc2cc(NS(=O)(=O)c3csc4ccccc34)ccc2n1CCN(C)C [Example 40e, N-(1-(2-(dimethylamino)ethyl)-2-methyl-1H-indol-5-yl)benzo[b]thiophene-3-sulfonamide] | 167 to 169 °C |
| CN1CCN(Cc2c[nH]c3ccc(NS(=O)(=O)Cc4ccccc4)cc23)CC1 [Example 41c, N-[3-(4-methylpiperazin-1-yl)methyl-1H-indol-5-yl]-α-toluenesulphonamide] | 99 to 102 °C |
| CCN(CC)CCn1ccc2cc(NS(=O)(=O)c3csc4ccccc34)ccc21 [Example 41e, N-(1-(2-(diethylamino)ethyl)-1H-indol-5-yl)benzo[b]thiophene-3-sulfonamide] | 62 to 75 °C |
| CCN(CC)CCCc1c[nH]c2ccc(NS(=O)(=O)c3ccc4ccccc4c3)cc12 [Example 42c, N-[3-(3-diethylaminopropyl)-1H-indol-5-yl]naphthalene-2-sulphonamide] | 128 to 130 °C |
| CN(C)CCn1ccc2cc(NS(=O)(=O)c3csc4ccccc34)ccc21 [Example 42e, N-(1-(2-(dimethylamino)ethyl)-1H-indol-5-yl)benzo[b]thiophene-3-sulfonamide] | 61 to 72 °C |
| CCN(CC)CCCc1c[nH]c2ccc(NS(=O)(=O)c3sc4ccc(Cl)cc4c3C)cc12 [Example 43c, N-[3-(3-diethylaminopropyl)-1H-indol-5-yl]-5-chloro-3-methylbenzo[b]thiophene-2-sulphonamide] | 156 to 158 °C |
| Cc1c(S(=O)(=O)Nc2ccc3c(ccn3CCCN3CCCCC3)c2)sc2ccc(Cl)cc12 [Example 43e, 5-chloro-3-methyl-N-(1-(3-(piperidin-1-yl)propyl)-1H-indol-5-yl)benzo[b]thiophene-2-sulfonamide] | 82 to 92 °C |
| O=S(=O)(Nc1ccc2c(ccn2CCCN2CCCCC2)c1)c1cccc2ccccc12 [Example 45e, N-(1-(3-(piperidin-1-yl)propyl)-1H-indol-5-yl)naphthalene-1-sulfonamide] | 105 to 107 °C |
| O=S(=O)(Nc1ccc2c(ccn2CCCN2CCCCC2)c1)c1ccc(-c2ccccc2)cc1 [Example 47e, 4-phenyl-N-(1-(3-(piperidin-1-yl)propyl)-1H-indol-5-yl)benzenesulfonamide] | 148 to 150 °C |
| O=S(=O)(CCc1cccc2ccccc12)Nc1ccc2c(ccn2CCCN2CCCCC2)c1 [Example 48e, 2-(naphth-1-yl)-N-(1-(3-(piperidin-1-yl)propyl)-1H-indol-5-yl)ethanesulfonamide] | 59 to 61 °C |
| O=S(=O)(Nc1ccc2c(ccn2CCCN2CCCCC2)c1)c1ccc(Oc2ccccc2)cc1 [Example 49e, 4-phenoxy-N-(1-(3-(piperidin-1-yl)propyl)-1H-indol-5-yl)benzenesulfonamide] | 64 to 66 °C |
| O=S(=O)(Nc1ccc2[nH]cc(CCN3CCOCC3)c2c1)c1ccc(-c2ccccc2)cc1 [Example 51c, N-{3-[2-(morpholin-4-yl)ethyl]-1H-indol-5-yl}-4-phenylbenzenesulphonamide] | 225 to 228 °C |
| O=S(=O)(Nc1ccc2c(ccn2CCCN2CCCCC2)c1)c1cc(Cl)c(Cl)s1 [Example 51e, 4,5-dichloro-N-(1-(3-(piperidin-1-yl)propyl)-1H-indol-5-yl)thiophene-2-sulfonamide] | 70 to 72 °C |
| O=S(=O)(Nc1ccc2c(ccn2CCCN2CCCCC2)c1)c1cccc2c(Cl)cccc12 [Example 52e, 5-chloro-N-(1-(3-(piperidin-1-yl)propyl)-1H-indol-5-yl)naphthalene-1-sulfonamide] | 92 to 96 °C |
| CN1CCN(CCc2c[nH]c3ccc(NS(=O)(=O)c4cccc5c(Cl)cccc45)cc23)CC1 [Example 53c, N-[3-(4-methylpiperazin-1-yl)ethyl-1H-indol-5-yl]-5-chloronaphthalene-1-sulphonamide] | 246 to 249 °C |

Molecular target: T2, Neuropeptide Y2 receptor (Rattus norvegicus, UniProt Q9ERC0)
T2 construct: from tissue; host or cells: rat hippocampus membranes (male Wistar rats)
T2 sequence (Q9ERC0 1-381): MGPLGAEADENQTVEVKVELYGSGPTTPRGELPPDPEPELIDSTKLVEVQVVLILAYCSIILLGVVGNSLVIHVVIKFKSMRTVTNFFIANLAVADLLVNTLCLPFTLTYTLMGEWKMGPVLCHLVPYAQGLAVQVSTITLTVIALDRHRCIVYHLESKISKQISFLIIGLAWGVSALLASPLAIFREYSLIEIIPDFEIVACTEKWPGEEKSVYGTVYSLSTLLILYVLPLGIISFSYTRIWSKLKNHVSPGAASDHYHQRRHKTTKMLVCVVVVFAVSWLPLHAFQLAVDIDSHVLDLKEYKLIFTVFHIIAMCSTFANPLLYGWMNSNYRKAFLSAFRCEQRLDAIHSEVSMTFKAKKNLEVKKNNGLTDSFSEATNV
Experiment: Binding to Neuropeptide Y2, Method (III), [125I]-PYY3-36, rat hypoccampus membranes
Conditions: [125I]-PYY(3-36)
Protocol: Binding to Neuropeptide Y2
Male Wistar rats are sacrificed by decapitation, their brains are rapidly removed and the hypoccampus is dissected. Homogenization is performed in cold conditions in the buffer: 120 mM NaCl, 4.7 mM KCl, 2.2 mM CaCl2, 1.2 mM KH2PO4, 1.2 mM MgSO4, 25 mM NaHCO3, 5.5 mM glucose, pH 7.4, by means of a Ultra-Turrax homogenizer for 15 seconds at 13,500 rpm. The ratio between fresh tissue weight and buffer volume is of ten times. The membrane is centrifuged for 10 min at 48,000 g. The supernatant is discarded and the pellet is washed, resuspended and recentrifuged two more times. The final membrane resuspension is performed in the buffer: 120 mM NaCl, 4.7 mM KCl, 2.2 mM CaCl2, 1.2 mM KH2PO4, 1.2 mM MgSO4, 25 mM NaHCO3, 5.5 mM glucose, 0.1% BSA, 0.05% bacitracin, pH 7.4, at a 90 ml/g ratio of fresh issue. […] Incubation volume: 500 μl. […] The filters are cold-washed three times with three milliliters of the same buffer used in homogenization. […] Non-specific binding is determined in the presence of 1 μM of pNPY (Neuropeptide Y of porcine origin). The assays are performed in triplicate.

| SMILES | Ki |
| --- | --- |
| Cl.O=C(CN1CCC(N2C(=O)OCc3ccccc32)CC1)Nc1ccc2c(c1)-c1ccccc1C2=O [Example 3a, 2-[4-(2-oxo-4H-benzo[d][1,3]oxazin-1-yl)-piperidin-1-yl]-N-(9-oxo-9H-fluoren-3-yl)-acetamide hydrochloride] | > 1 µM |
| Cc1ccc2c(c1)COC(=O)N2C1CCN(CC(=O)Nc2ccc3c(c2)-c2ccccc2C3=O)CC1.Cl [Example 20a, 2-[4-(6-methyl-2-oxo-4H-benzo[d][1,3]oxazin-1-yl)-piperidin-1-yl]-N-(9-oxo-9H-fluoren-3-yl)-acetamide hydrochloride] | > 1 µM |
